# Results taken from ChEMBL document CHEMBL1132507, “Dibasic benzo[B]thiophene derivatives as a novel class of active site directed thrombin inhibitors: 4. SAR studies on the conformationally restricted C3-side chain of hydroxybenzo[B]thiophenes” (Bioorg Med Chem Lett, 1999).
# Target: Prothrombin (Homo sapiens) (UniProt P00734)
# Assay: Apparent association constant towards thrombin.
row,SMILES,K ass
1,Oc1ccc2c(Cc3ccc(O[C@@H]4CCCC[C@H]4n4ccnc4)cc3)c(-c3ccc(OCCN4CCCC4)cc3)sc2c1,8.08e+06 l M-1
2,Oc1ccc2c(Cc3ccc(O[C@@H]4CCCC[C@H]4N4CCCCC4)nc3)c(-c3ccc(OCCN4CCCC4)cc3)sc2c1,9.61e+07 l M-1
3,Oc1ccc2c(Cc3ccc(O[C@@H]4CCCC[C@H]4N4CCCCC4)c(F)c3)c(-c3ccc(OCCN4CCCC4)cc3)sc2c1,2.03e+08 l M-1
4,COc1cc(Cc2c(-c3ccc(OCCN4CCCC4)cc3)sc3cc(O)ccc23)ccc1O[C@@H]1CCCC[C@H]1N(C)C,1.46e+08 l M-1
5,Oc1ccc2c(Cc3ccc(O[C@@H]4CCCC[C@H]4N4CCCC4)c(F)c3)c(-c3ccc(OCCN4CCCC4)cc3)sc2c1,1.21e+08 l M-1
6,Cc1cc(Cc2c(-c3ccc(OCCN4CCCC4)cc3)sc3cc(O)ccc23)ccc1O[C@@H]1CCCC[C@H]1N1CCCC1,3.49e+08 l M-1
7,CCN(CC)[C@@H]1CCCC[C@H]1Oc1ccc(Cc2c(-c3ccc(OCCN4CCCC4)cc3)sc3cc(O)ccc23)cc1,4.98e+07 l M-1
8,Oc1ccc2c(Cc3ccc(O[C@@H]4CCCC[C@H]4N4CCCC4)c(Br)c3)c(-c3ccc(OCCN4CCCC4)cc3)sc2c1,2.8e+08 l M-1
9,Oc1ccc2c(Cc3ccc(O[C@@H]4CCCC[C@H]4N4CCCC4)c(C(F)(F)F)c3)c(-c3ccc(OCCN4CCCC4)cc3)sc2c1,6.84e+07 l M-1
10,CN(C)[C@@H]1CCCC[C@H]1Oc1ccc(Cc2c(-c3ccc(OCCN4CCCC4)cc3)sc3cc(O)ccc23)cc1,5.11e+07 l M-1
11,Oc1ccc2c(Cc3ccc(O[C@@H]4CCCC[C@H]4N4CCOCC4)cc3)c(-c3ccc(OCCN4CCCC4)cc3)sc2c1,1.81e+07 l M-1
12,COc1cc(Cc2c(-c3ccc(OCCN4CCCC4)cc3)sc3cc(O)ccc23)ccc1O[C@@H]1CCCC[C@H]1N1CCCC1,3.09e+08 l M-1
13,COc1cc(Cc2c(-c3ccc(OCCN4CCCC4)cc3)sc3cc(O)ccc23)ccc1O[C@@H]1CCCC[C@H]1N1CCCCC1,1.16e+08 l M-1
14,Oc1ccc2c(Cc3ccc(O[C@@H]4CCCC[C@H]4N4CCCC4)c(O)c3)c(-c3ccc(OCCN4CCCC4)cc3)sc2c1,1.12e+07 l M-1

# Results, then the compound that gave them:
row,K ass,SMILES
1,1.39e+07 l M-1,Oc1ccc2sc(-c3ccc(OCCN4CCCC4)cc3)c(Cc3ccc(OC4CCCC[C@H]4N4CCCCC4)cc3)c2c1 (stereo partly drawn)
2,2.04e+07 l M-1,c1ccc2c(Cc3ccc(O[C@@H]4CCCC[C@H]4N4CCCCC4)cc3)c(-c3ccc(OCCN4CCCC4)cc3)sc2c1
3,2.18e+08 l M-1,Oc1ccc2c(Cc3ccc(O[C@@H]4CCCC[C@H]4N4CCCC4)cc3)c(-c3ccc(OCCN4CCCC4)cc3)sc2c1
4,118000 l M-1,COc1cccc2c(Cc3ccc(O[C@@H]4CCCC[C@H]4N4CCCCC4)cc3)c(-c3ccc(OCCN4CCCC4)cc3)sc12
5,3.83e+06 l M-1,COc1ccc2c(Cc3ccc(O[C@@H]4CCCC[C@H]4N4CCCCC4)cc3)c(-c3ccc(OCCN4CCCC4)cc3)sc2c1
6,490000 l M-1,O=C(c1ccc(O[C@@H]2CCCC[C@H]2N2CCCCCC2)cc1)c1c(-c2ccc(OCCN3CCCC3)cc2)sc2ccccc12
7,4.73e+07 l M-1,Oc1ccc2c(Cc3ccc(O[C@@H]4CCC[C@H]4N4CCCCC4)cc3)c(-c3ccc(OCCN4CCCC4)cc3)sc2c1
8,1.73e+06 l M-1,Oc1cccc2sc(-c3ccc(OCCN4CCCC4)cc3)c(Cc3ccc(O[C@@H]4CCCC[C@H]4N4CCCCC4)cc3)c12
9,510000 l M-1,O=C(c1ccc(O[C@@H]2CCCC[C@H]2N2CCCC2)cc1)c1c(-c2ccc(OCCN3CCCC3)cc2)sc2ccccc12
10,3.65e+07 l M-1,COc1ccc2sc(-c3ccc(OCCN4CCCC4)cc3)c(Cc3ccc(O[C@@H]4CCCC[C@H]4N4CCCCC4)cc3)c2c1
11,1.17e+06 l M-1,O=C(c1ccc(O[C@@H]2CCCC[C@H]2N2CCCCC2)cc1)c1c(-c2ccc(OCCN3CCCC3)cc2)sc2ccccc12
12,2.12e+08 l M-1,Oc1ccc2c(Cc3ccc(O[C@@H]4CCCC[C@H]4N4CCCCC4)cc3)c(-c3ccc(OCCN4CCCC4)cc3)sc2c1
13,7.48e+07 l M-1,Oc1ccc2c(Cc3ccc(O[C@@H]4CCCC[C@H]4N4CCCCCC4)cc3)c(-c3ccc(OCCN4CCCC4)cc3)sc2c1
14,1.08e+06 l M-1,Oc1cccc2c(Cc3ccc(O[C@@H]4CCCC[C@H]4N4CCCCC4)cc3)c(-c3ccc(OCCN4CCCC4)cc3)sc12
